According to US10316077B2, “Cell-penetrating ATF5 polypeptides and uses thereof” (Sapience Therapeutics, Inc., priority 2017, dated 2019):
Several values for one entry are separate records, joined by “and”; a condition that tells them apart may be missing. Equal entries are not always repeated. Ends that are not written are not given here.

Experiments:
U87 cells [1] = assay: Apo-ONE caspase 3/7 activation assay in U87 glioblastoma cells; assay type: cell-based
Experimental: Activation of caspase enzymes occurs in the early stages of apoptosis. In this Example, we investigated the effect on caspase activation of ST-3 in combination with the Bcl-2 inhibitor ABT-263 (Navitoclax). U87 cells were prepared as described in Example 2 for T98G cells. Lyophilized ST-3 was freshly reconstituted in Tris Buffer at a concentration of 5 mg/mL, and adjusted to a working concentration of 200 μM. ST-3 was added to cells in 100 μL Tris Buffer at a final concentration range of 0-20 μM. […] Plates were incubated at ambient temperature in the dark for 1.5-2 hours. Fluorescence was recorded by Eppendorf PlateReader AF2200 at Ex. 485 nm/Em. 527 nm.

U251 GBM cells = assay: Annexin V/PI cell viability assay in U251 cells; assay type: cell-based; settings: 48-hour incubation, read-out: EC50 (μM) of ATF-5-Derived Polypeptides in Cancer Cells, U251
Experimental: (§1) ST-3, reconstituted at a concentration of 10 mg/mL in 20 mM His, pH 7.5, was added to each well at a volume of 50 μL to a final concentration range of 0-80 μM. Cells were incubated with ST-3 for 48 hours at 37° C. Cell viability was quantified by flow cytometry using an Annexin V FITC apoptosis detection kit from Abcam. Briefly, cells were washed with PBS and resuspended in 1× assay buffer containing Annexin V FITC and propidium iodide (PI). Annexin V detects apoptotic cells, and PI stains dead cells. After staining, apoptotic cells show green fluorescence, dead cells show red and green fluorescence, and live cells show little or no fluorescence. Cells were selected for analysis based on forward scatter (FSC) vs. side scatter (SSC), and analyzed by BD Accuri C6 Plus flow cytometer to detect Annexin V-FITC binding (Ex=488 nm; Em=530 nm) using FITC signal detector and PI staining by the phycoerythrin emission signal detector. Percentage of Annexin V^low and PI^low were quantified and presented as % Viability.
(§2) Alternatively, adherent U251 or U87 cells were set at a density of 3.5×10^3 cells/well in 150 μL of media on day −1. On day 0, media was removed and replenished with 150 μL of fresh media, and cells were treated with ST-3 as described. […] Cell viability was determined as described above for suspension cells.

[2] = system: HL60 promyelocytic leukemia (PML) cells; assay: Annexin V/PI cell viability assay in HL60 cells; assay type: cell-based, human; settings: for EC50: HL60, Annexin V/PI viability, 48 hours, read-out: EC50 (μM) of ATF-5-Derived Polypeptides in Cancer Cells, HL60
Experimental: as §1

T98G GBM cells [3] = assay: CellTiter-Blue cell viability assay in T98G cells; settings: read-out: EC50 (μM) of ATF-5-Derived Polypeptides in Cancer Cells, T98G, 72 hours
Experimental: (§3) T98G cells were set at a density of 2×10^3/well in 200 μL of RPMI+1.5% fetal bovine serum (FBS) in black-walled Nunc™ MicroWell™ 96-Well Optical-Bottom Plates with Polymer Base.
(§4) On day −1, adherent T98G cells were washed of complete media (RPMI+10% FBS) with 6 mL Dulbecco's Phosphate Buffered Saline (DPBS), and dissociated from T25 Nunclon™ Delta flask with 2 mL trypsin at room temperature. Trypsin was quenched with 6 mL complete media, and cells were resuspended in fresh complete media at a concentration of 1×10^6 cells/mL. Cells were then adjusted to a concentration of 1×10^4 cells/mL in RPMI+1.5% FBS, and 200 μL of culture was added to each well (B2 to G11) of a Nunc™ 96-well Flat Bottom Black Polystyrol Clear Bottom plate to a final cell concentration of 2×10^3 cells/well. Cells were set in an incubator at 37° C. and 5% CO2 with humidity for 24 hours.
(§5) On day 0, 100 μL of media was removed from each well.
(§6) On day 3, media was removed from wells, and wells were washed with 100 μL DPBS. Cells were resuspended in 100 μL RPMI+10% FBS. CellTiter-Blue® Cell Viability Assay (Promega Corp., Madison, Wis.) was performed by adding 20 μL of CellTiter-Blue® reagent to each well. Plates were returned to the incubator at 37° C. and 5% CO2 with humidity for 1.5-2 hours. CellTiter-Blue® assay results were read by Eppendorf PlateReader AF2200 at Ex. 535 nm/Em. 595 nm according to manufacturer's instructions. Data is presented as % Viability. Cell viability was calculated as (Sample value/Buffer control value)×100. EC50 values were calculated using GraphPad Prism v.7 XML.

U87 cells [4] = assay: Annexin V/PI cell viability assay in U87 cells; assay type: cell-based; settings: 48-hour incubation, read-out: EC50 (μM) of ATF-5-Derived Polypeptides in Cancer Cells, U87
Experimental: as §1, §2

T98G GBM cells [5] = system: T98G GBM cells
Experimental: as §3, §4, §5, §6

neoplastic cells = settings: systemically administered; cited from earlier work

Compound | EC50 (U251 GBM cells) [µM] | EC50 [2] [µM] | EC50 (T98G GBM cells [3]) [µM] | EC50 (U87 cells [4]) [µM] | other results
CC1(C)CCC(c2ccc(Cl)cc2)=C(CN2CCN(c3ccc(C(=O)NS(=O)(=O)c4ccc(N[C@H](CCN5CCOCC5)CSc5ccccc5)c(S(=O)(=O)C(F)(F)F)c4)cc3)CC2)C1 [ABT-263, ABT-263 (Navitoclax)] |  |  |  |  | % Caspase Activation, ABT-263 alone (U87 cells [1]; ST-3 0 μM, ABT-263 0.5 μM, % of positive control): 15.5% and 15.32%
CN[C@@H]1C[C@H]2O[C@@](C)([C@@H]1OC)n1c3ccccc3c3c4c(c5c6ccccc6n2c5c31)C(=O)NC4 [Positive Control, staurosporine] |  |  |  |  | % Caspase Activation, positive control (U87 cells [1]; staurosporine 10 μM, reference set to 100): 100%
RQIKIWFQNRRMKWKKLEGECQGLEARNRELKERAESV [ST-3] | 42 | 16 | 69 | 45 | cytotoxic activity compared to ST-2 (T98G GBM cells [5]): unexpectedly superior cytotoxic activity over ST-2
RQIKIWFQNRRMKWKKLEQRAEELARENEELLEKEAEELEQENAELEGECQGLEARNRELRERAESV [ST-2] | > 200 | > 200 | > 200 | > 200 | blood-brain barrier crossing, cell entry and apoptosis of neoplastic cells (neoplastic cells): can cross the blood-brain barrier, enter cells, and selectively trigger the apoptotic death of neoplastic cells
YGRKKRRQRRLEGECQGLEARNRELKERAESV [ATF5 Polypeptide with Tat CPP] |  |  |  |  | cytotoxic activity ([2]; HL-60 cell viability assay): has cytotoxic activity
